The text below walks through data of the SangsterLogP compilation.

The structures appear in SMILES notation.

The nature of one series: method code SF-AS, from DOI: 10.1021/jm00226a007, PMID: 817022. The settings on record: pH 7.4.
A word on the logD: it is the decadic logarithm of the distribution of all forms, ionised or not, between an organic phase and buffer at a given pH. On to `NNC(=O)c1ccnc(I)c1`, for which the logD came out at 0.52.

On to `NNC(=O)c1ccnc(Cl)c1`, for which the logD was 0.11.

As for `CC(=O)NCc1cc(C(=O)NN)ccn1`, the logD is -1.58.

For the molecule `CCc1cc(C(=O)NN)ccn1`, the logD was found to be 0.12.

`CCCc1cc(C(=O)NN)ccn1` returned a logD of 0.63.

`NNC(=O)c1ccnc(F)c1` had a logD of -0.11.

With `CC(=O)Nc1cc(C(=O)NN)ccn1`, the logD is -1.25.

As for `CC(C)Cc1cc(C(=O)NN)ccn1`, the logD was determined as 1.02.

Consider `NNC(=O)c1ccnc(N)c1`, for which the logD was -0.98.

Consider `NNC(=O)c1ccnc(Cc2ccccc2)c1`, for which the logD came out at 1.01.

Take `CCN(CC)c1cc(C(=O)NN)ccn1`: the logD was found to be 1.12.

In turn, `CCOc1cc(C(=O)NN)ccn1` came in with a logD of 0.48.

Consider `NNC(=O)c1ccnc(Br)c1`, for which the logD was determined as 0.25.

The molecule `Cc1cc(C(=O)NN)ccn1` had a logD of -0.37.

In turn, `NNC(=O)c1ccnc([N+](=O)[O-])c1` came in with a logD of -0.76.

Molecule `NNC(=O)c1ccnc(-c2ccccc2)c1` displayed a logD of 1.36.

A further series is described as follows: method code SF, from DOI: 10.1021/jm00226a007, PMID: 817022. The note with it: pH 7.4.
Regarding `COc1cc(C(=O)NN)ccn1`, the logD is -0.1.
